Laboratory results published in BindingDB's records for doi:10.1021/jm1002827 (Pfizer, 2010).

Biological target: T1, Estrogen receptor (Homo sapiens, UniProt P03372)
T1 sequence (P03372 whole entry): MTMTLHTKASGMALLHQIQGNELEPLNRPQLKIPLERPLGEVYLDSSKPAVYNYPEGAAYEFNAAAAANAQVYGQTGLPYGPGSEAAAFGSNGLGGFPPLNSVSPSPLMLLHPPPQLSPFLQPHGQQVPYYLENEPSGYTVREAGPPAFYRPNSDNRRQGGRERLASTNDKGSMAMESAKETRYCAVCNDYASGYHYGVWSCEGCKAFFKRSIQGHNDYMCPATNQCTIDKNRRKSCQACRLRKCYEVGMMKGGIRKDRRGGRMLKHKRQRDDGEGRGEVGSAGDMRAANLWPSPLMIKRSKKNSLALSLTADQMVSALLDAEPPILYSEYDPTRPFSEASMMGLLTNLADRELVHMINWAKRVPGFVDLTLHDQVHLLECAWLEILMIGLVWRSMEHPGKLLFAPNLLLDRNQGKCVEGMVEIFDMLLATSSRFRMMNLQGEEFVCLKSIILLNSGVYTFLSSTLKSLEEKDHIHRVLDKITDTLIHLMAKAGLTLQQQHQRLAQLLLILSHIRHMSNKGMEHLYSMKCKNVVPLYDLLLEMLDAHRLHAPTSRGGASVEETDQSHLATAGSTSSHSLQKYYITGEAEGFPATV
Assay: Inhibition of estrogen receptor

Compound	IC50 [µM]
CC1=NC(C)=C(C(=O)OC(C)(C)C)[C@H](c2ccc(F)cc2Cl)C1C#N (stereo partly drawn) [tert-Butyl (4R)-4-(2-Chloro-4-fluorophenyl)-5-cyano-2,6-dimethyl-1,4-dihydropyridine-3-carboxylate]	> 10
CCCC1=C(C(=O)OCC)[C@H](c2ccnc3ccccc23)C(C#N)C(C)=N1 (stereo partly drawn) [(R)-Ethyl 5-Cyano-6-methyl-2-propyl-4-quinolin-4-yl-1,4-dihydropyridine-3-carboxylate]	> 10
